Laboratory results published in patent US4232013A, “16,17-Pyrazolino- and 16,17-isopyrazolino-1,4-pregnadiene derivatives” (Lark S.p.A., priority 1977, dated 1980).

Assays:
[1] = tested on: granuloma formation; assay: cotton granuloma assay, topical anti-inflammatory activity; type: in vivo, rat (adult female albino, Sprague-Dawley); design: key: relative potency; comparison steroid = 1; conditions: 20-2-0.2 mcg/cotton pellet, 7 days; for Anti-inflammatory activity (*): (*) in comparison with Fluocinolone acetonide; for Anti-inflammatory activity (**): (**) in comparison with Dexamethasone 21-acetate
Description: (§1) The topical anti-inflammatory activity of the new compounds of this invention was determined using the cotton granuloma assay. This test was performed according to C. A. Winter and C. C. Porter J. Am. Pharm. Ass. Sci., Ed. 46, 515. 1957 using adult female albino rats (Sprague-Dawley) average body weight 150 grams. 8 animals per group.
(§2) The method consists in the subcutaneous implantation in the dorsal region of 2 sterile cotton pelletts. The pellets employed were 5 mm section cut from dental cotton rolls weighing about 45 mg each. The tested compound dissolved in ethyl alcohol, was absorbed on the pellets before implantation. Fluocinolone acetonide and Dexamethasone-21-acetate was used as comparison products and their activities were conventionally taken equal to 1 for each of the various parameters herein considered. Comparison substance and tested new compounds were absorbed on the pellets at the following scalar dosage per each pellet: 20-2-0.2 mcg/cotton pellet. For the controls the pellets were soakened in the pure solvent (ethyl alcohol) and then dried as usually.
After seven days the animals were sacrified. The pellets were removed and the exudate weights were recorded as a measure of the granuloma formation. The degree of granuloma inhibition reflects the anti-inflammatory activity of the tested compounds.
(§3) In the following Table 1. there are reported the achieved results with regard to the anti-inflammatory activity, the thymolitic activity, and the LD50 values: […]

[2] = thymolytic activity (topical administration); type: in vivo, rat (adult female albino, Sprague-Dawley)
Description: as §1, §2, §3

[3] = LD50 (acute toxicity); conditions: in vivo, topical or ocular; Table 1, topical administration
Text: as §3

[4] = tested on: vasoconstrictive activity, human volunteers; assay: vasoconstrictive activity in human volunteers (McKenzie and Stoughton's test or Falconi and Rossi's Paper-Patch Test); type: in vivo; conditions: for vasoconstrictive activity (in words): human volunteers
Text: Some of the esters have been tested in human volunteers for their vasoconstrictive activity using the McKenzie and Stoughton's test (1) or the Falconi and Rossi's Paper-Patch Test (2) in comparison with a known anti-inflammatory corticosteroid, namely fluocinolone acetonide.
In the first experiment 2 dilutions of 4 esters have been tested on volunteers and 10 dilutions have been applied for each subject.
1. Mc Kenzie, A.W., Stoughton, R.B.: Method for comparing percutaneous
absorption of Steroids. Arch. Derm. 86, 608, 1962.
vasoconstrictive activity of Corticosteroids. Arch. Derm. 105, 856, 1972.

[5] = topical, relative, comparison product conventionally equal to 1 (Dexamethasone 21-acetate = 1)
[6] = Table 2, first trial, dilution 10^4
[7] = Table 2, first trial, dilution 10^5
[8] = Table 2a, second trial, dilution 10^3
[9] = Table 2a, second trial, dilution 10^4
[10] = Table 2a, second trial, dilution 10^5
[11] = Table 2a, second trial, dilution 10^6

Structure (SMILES) | Anti-inflammatory activity (*) [1] | Anti-inflammatory activity (**) [1] | Thymolytic activity [2, 5] | LD50 [3] | % Positive [4, 6] | Results (Positive/No. of subjects) [4, 6] | % Positive [4, 7] | Results (Positive/No. of subjects) [4, 7] | also measured
CC(=O)OCC(=O)[C@@]12NN=C[C@@H]1C[C@H]1[C@@H]3C[C@H](F)C4=CC(=O)C=C[C@]4(C)[C@@]3(F)[C@@H](O)C[C@@]12C [16,17 M Dif-AC, 16α,17α-Isopyrazolino-1,4-pregnadiene-6α,9α-difluoro-11β,21-diol-3,20-dione 21-acetate] | > 10 | > 20 | 0.26 | 1120 mg/kg | – | – | – | – | –
CC(=O)OCC(=O)[C@@]12NN=C[C@@H]1C[C@H]1[C@@H]3CCC4=CC(=O)C=C[C@]4(C)[C@@]3(F)[C@@H](O)C[C@@]12C [16-17 MF-AC, 16α,17α-Isopyrazolino-1,4-pregnadiene-9α-fluoro-11β,21-diol-3,20-dione-21-acetate] | > 10 | > 20 | 0.02 | > 2000 mg/kg | – | – | – | – | –
CC(C)(C)C(=O)OCC(=O)[C@@]12NN=C[C@@H]1C[C@H]1[C@@H]3C[C@H](F)C4=CC(=O)C=C[C@]4(C)[C@@]3(F)[C@@H](O)C[C@@]12C [16-17-M-Dif-Piv, 16α,17α-Isopyrazolino-1,4-pregnadiene-6α,9α-difluoro-11β,21-diol-3,20-dione-21-pivalate] | – | – | – | – | 20% | 1/5 | 0% | 0/5 | –
CCCCC(=O)OCC(=O)[C@@]12NN=C[C@@H]1C[C@H]1[C@@H]3C[C@H](F)C4=CC(=O)C=C[C@]4(C)[C@@]3(F)[C@@H](O)C[C@@]12C [16-17-M-Dif-Va, 16α,17α-Isopyrazolino-1,4-pregnadiene-6α,9α-difluoro-11β,21-diol-3,20-dione-21-valerate] | – | – | – | – | 100% | 5/5 | 40% | 2/5 | % Positive [4, 8]: 100%; Results (Positive/No. of subjects) [4, 8]: 5/5; % Positive [4, 9]: 80%; Results (Positive/No. of subjects) [4, 9]: 4/5; % Positive [4, 10]: 80%; Results (Positive/No. of subjects) [4, 10]: 4/5; % Positive [4, 11]: 60%; Results (Positive/No. of subjects) [4, 11]: 3/5; vasoconstrictive activity (in words) [4]: showed the best activity in the first trial; vasoconstrictive activity (in words) ([4]; listed as 16-17-Dif-Va): showed the same potency as fluocinolone acetonide even at the lower concentrations employed in the trials
CC(=O)OCC(=O)[C@@]1(O)[C@H](C)C[C@H]2[C@@H]3CCC4=CC(=O)C=C[C@]4(C)[C@@]3(F)[C@@H](O)C[C@@]21C [Dexamethasone 21-acetate, reference compound] | 1 | 1 | – | 259 mg/kg | – | – | – | – | Thymolytic activity ([2]; rat, in vivo): 1
CCCC(=O)OCC(=O)[C@@]12NN=C[C@@H]1C[C@H]1[C@@H]3C[C@H](F)C4=CC(=O)C=C[C@]4(C)[C@@]3(F)[C@@H](O)C[C@@]12C [Example 16-17-Dif-Bu, 16α,17α-Isopyrazolino-1,4-pregnadiene-6α,9α-difluoro-11β,21-diol-3,20-dione-21-butyrate] | – | – | – | – | 60% | 3/5 | 20% | 1/5 | –
CCCCC(=O)OCC(=O)[C@@]12NN=C[C@@H]1C[C@H]1[C@@H]3CCC4=CC(=O)C=C[C@]4(C)[C@@]3(F)[C@@H](O)C[C@@]12C [Example 16-17-M-F-Va, 16α,17α-Isopyrazolino-1,4-pregnadiene-9α-fluoro-11β,21-diol-3,20-dione-21-valerate] | – | – | – | – | 100% | 5/5 | 40% | 1/5 | –
CC1(C)O[C@@H]2C[C@H]3[C@@H]4C[C@H](F)C5=CC(=O)C=C[C@]5(C)[C@@]4(F)[C@@H](O)C[C@]3(C)[C@]2(C(=O)CO)O1 [Fluocinolone acetonide, reference compound] | 2 | 2 | – | 166 mg/kg | 100% | 5/5 | 60% | 3/5 | Thymolytic activity ([2]; rat, in vivo): 0.83
CC(=O)OCC(=O)[C@@]12N=NC[C@@H]1C[C@H]1[C@@H]3C[C@H](F)C4=CC(=O)C=C[C@]4(C)[C@@]3(F)[C@@H](O)C[C@@]12C [Pyr Dif-AC, 16α,17α-Pyrazolino-1,4-pregnadiene-6α,9α-difluoro-11β,21-diol-3,20-dione 21-acetate] | > 10 | > 20 | 0.52 | 439 mg/kg | – | – | – | – | –
CC(=O)OCC(=O)[C@@]12N=NC[C@@H]1C[C@H]1[C@@H]3CCC4=CC(=O)C=C[C@]4(C)[C@@]3(F)[C@@H](O)C[C@@]12C [Pyr-F-Ac, 16α,17α-Pyrazolino-1,4-pregnadiene-9α-fluoro-11β,21-diol-3,20-dione-21-acetate] | ≥ 10 | ≥ 20 | 0.14 | 721 mg/kg | – | – | – | – | –
CC1(C)O[C@@H]2C[C@H]3[C@@H]4CCC5=CC(=O)C=C[C@]5(C)[C@@]4(F)[C@@H](O)C[C@]3(C)[C@]2(C(=O)CO)O1 [Triamcinolone acetonide, reference compound] | – | – | – | – | – | – | – | – | % Positive [4, 8]: 100%; Results (Positive/No. of subjects) [4, 8]: 5/5; % Positive [4, 9]: 100%; Results (Positive/No. of subjects) [4, 9]: 5/5; % Positive [4, 10]: 60%; Results (Positive/No. of subjects) [4, 10]: 3/5; % Positive [4, 11]: 40%; Results (Positive/No. of subjects) [4, 11]: 2/5
